# Measured values: US7538073B2, “Pyrazoylcarboxanilides as fungicides” (Bayer CropScience AG, priority 2001, dated 2009)
# Tested on: not listed separately
# Experiment: logP by HPLC, reversed-phase column (C 18), EEC Directive 79/831 Annex V.A8
# Assay type: physicochemical
# Details: reversed-phase HPLC column (C 18), acidic range pH 2.3, 0.1% aqueous phosphoric acid/acetonitrile gradient, 43° C.
# Experimental: The logP values given in the preparation examples and tables above are determined in accordance with EEC Directive 79/831 Annex V.A8 by HPLC (High Performance Liquid Chromatography) using a reversed-phase column (C 18). Temperature: 43° C. The determination is carried out in the acidic range at pH 2.3 using the mobile phases 0.1% aqueous phosphoric acid and acetonitrile; linear gradient from 10% acetonitrile to 90% acetonitrile. The calibration is carried out using unbranched alkan-2-ones (having 3 to 16 carbon atoms), with known logP values (determination of the logp values by the retention times using linear interpolation between two successive alkanones).
row,chromatographic logP,SMILES
1,4.36,"CCCC/C=C(\C)c1ccccc1NC(=O)c1c(C)nn(C)c1F [Example 5, 5-fluoro-1,3-dimethyl-N-[2-(1-methyl-1-hexenyl)phenyl]-1H-pyrazol-4-carboxamide]"
2,4.36,C=C(c1ccccc1NC(=O)c1c(C)nn(C)c1F)C1CCCCC1 [Example I-9]
3,3.01,CCCC(C)c1ccccc1NC(=O)c1c(C)nn(C)c1F (centres unmarked) [Example I-17]
4,2.57,C=C(C)c1ccccc1NC(=O)c1c(C)nn(C)c1F [Example I-23]
5,3.82,Cc1nn(C)c(F)c1C(=O)Nc1ccc(Cl)cc1C(C)CC(C)C (centres unmarked) [Example I-25]
6,3.82,Cc1nn(C)c(F)c1C(=O)Nc1ccccc1C(C)CC1CCCC1 (centres unmarked) [Example I-27]
7,3.73,CCC(CC(C)C)c1ccccc1NC(=O)c1c(C)nn(C)c1F (centres unmarked) [Example I-28]
8,5.29,CCCCCCCCC(C)c1ccccc1NC(=O)c1c(C)nn(C)c1F (centres unmarked) [Example I-30]
9,3.85,CCCCC(CC)c1ccccc1NC(=O)c1c(C)nn(C)c1F (centres unmarked) [Example I-31]
10,4.11,CCCC(C)CC(C)c1ccccc1NC(=O)c1c(C)nn(C)c1F (centres unmarked) [Example I-35]
11,3.76,Cc1nn(C)c(F)c1C(=O)Nc1ccccc1C(C)CCC(C)C (centres unmarked) [Example I-36]
12,3.37,CCC(c1ccccc1NC(=O)c1c(C)nn(C)c1F)C(C)C (centres unmarked) [Example I-38]
13,4.24,CCCCC(c1ccccc1NC(=O)c1c(C)nn(C)c1F)C(C)C (centres unmarked) [Example I-39]
14,3.28,CCC(C)C(C)c1ccccc1NC(=O)c1c(C)nn(C)c1F (centres unmarked) [Example I-40]
15,3.32,Cc1nn(C)c(F)c1C(=O)Nc1ccc(F)cc1C(C)CC(C)C (centres unmarked) [Example I-41]
16,3.82,Cc1nn(C)c(F)c1C(=O)Nc1ccccc1C(C)C1CCCCC1 (centres unmarked) [Example I-42]
17,3.05,CCCC(C)c1cc(F)ccc1NC(=O)c1c(C)nn(C)c1F (centres unmarked) [Example I-43]
18,4.2,Cc1nn(C)c(F)c1C(=O)Nc1ccccc1C(C)CC1CCCCC1 (centres unmarked) [Example I-45]
19,2.44,"Cc1nn(C)c(F)c1C(=O)Nc1ccccc1I [Example V-1, 5-fluoro-N-(2-iodophenyl)-1,3-dimethyl-1H-pyrazol-4-carboxamide]"
20,3.13,CCCCCC(C)(O)c1ccccc1NC(=O)c1c(C)nn(C)c1F (centres unmarked) [IV-3]
21,3.1,Cc1nn(C)c(F)c1C(=O)Nc1ccccc1C(C)(O)C1CCCCC1 (centres unmarked) [IV-4]
22,2.68,Cc1nn(C)c(F)c1C(=O)Nc1ccccc1C(C)(O)CC(C)C (centres unmarked) [IV-6]
23,2.15,"CC(=O)c1ccccc1NC(=O)c1c(C)nn(C)c1F [VIII-1, N-(2-acetylphenyl)-5-fluoro-1,3-dimethyl-1H-pyrazol-4-carboxamide]"

# Continued, compound first:
row,SMILES,chromatographic logP
1,"CCC(CC)c1ccccc1NC(=O)c1c(C)nn(C)c1F [Example 2, N-[2-(1-ethylpropyl)phenyl]-5-fluoro-1,3-dimethyl-1H-pyrazol-4-carboxamide]",3.01
2,"Cc1nn(C)c(F)c1C(=O)Nc1ccccc1C=CC1CC1(F)F (centres unmarked) [Example 4, N-{2-[2-(2,2-difluorocyclopropyl)ethenyl]-phenyl}-5-fluoro-1,3-dimethyl-1H-pyrazol-4-carboxamide]",2.59
3,C=C(c1ccccc1NC(=O)c1c(C)nn(C)c1F)C(C)C [Example I-10],3.37
4,C=C(c1cc(Cl)ccc1NC(=O)c1c(C)nn(C)c1F)C(C)C [Example I-16],4.11
5,Cc1nn(C)c(F)c1C(=O)Nc1ccccc1C(C)C(C)C (centres unmarked) [Example I-18],2.92
6,Cc1nn(C)c(F)c1C(=O)Nc1ccc(Cl)cc1C(C)C(C)C (centres unmarked) [Example I-19],3.43
7,C=Cc1ccccc1NC(=O)c1c(C)nn(C)c1F [Example I-20],1.92
8,Cc1nn(C)c(F)c1C(=O)Nc1ccccc1C(C)CC(C)C (centres unmarked) [Example I-21],3.26
9,CCCCCC(C)c1ccccc1NC(=O)c1c(C)nn(C)c1F (centres unmarked) [Example I-22],3.83
10,C/C=C(\CC)c1ccccc1NC(=O)c1c(C)nn(C)c1F [Example I-24],3.45
11,CCC(C)CC(C)c1ccccc1NC(=O)c1c(C)nn(C)c1F (centres unmarked) [Example I-26],3.67
12,CCC(C)C(CC)c1ccccc1NC(=O)c1c(C)nn(C)c1F (centres unmarked) [Example I-29],3.74
13,CCCC(CC)c1ccccc1NC(=O)c1c(C)nn(C)c1F (centres unmarked) [Example I-32],3.42
14,CCC(c1ccccc1NC(=O)c1c(C)nn(C)c1F)C1CCCCC1 (centres unmarked) [Example I-33],4.34
15,Cc1nn(C)c(F)c1C(=O)Nc1ccccc1C(C)CCCC(C)C (centres unmarked) [Example I-34],4.22
16,CC(C)=CC(C)CCC(C)c1ccccc1NC(=O)c1c(C)nn(C)c1F (centres unmarked) [Example I-37],4.49
17,Cc1nn(C)c(F)c1C(=O)Nc1c(F)cccc1C(C)CC(C)C (centres unmarked) [Example I-44],3.16
18,Cc1nn(C)c(F)c1C(=O)Nc1ccccc1C(C)(F)C(C)C (centres unmarked) [Example I-46],3.09
19,Cc1nn(C)c(F)c1C(=O)Nc1ccccc1C(C)(F)CCCCCl (centres unmarked) [Example I-47],4.01
20,CCC(C)C(C)(F)c1ccccc1NC(=O)c1c(C)nn(C)c1F (centres unmarked) [Example I-48],3.44
21,Cc1nn(C)c(F)c1C(=O)Nc1ccccc1C(C)(F)CC(C)C (centres unmarked) [Example I-49],3.47
22,CCCC(C)c1cccc(F)c1NC(=O)c1c(C)nn(C)c1F (centres unmarked) [Example I-50],2.86
23,Cc1nn(C)c(F)c1C(=O)Nc1ccccc1C#CCC1CCCCC1 [Example I-52],5.08
24,Cc1nn(C)c(F)c1C(=O)Nc1ccccc1C#CC(C)C [Example I-53],3.59
25,Cc1nn(C)c(F)c1C(=O)Nc1c(C(C)CC(C)C)cccc1C(C)CC(C)C (centres unmarked) [Example I-54],4.9
26,"CCC(O)(CC)c1ccccc1NC(=O)c1c(C)nn(C)c1F [IV-1, N-[2-(1-ethyl-1-hydroxypropyl)phenyl]-5-fluoro-1,3-dimethyl-1H-pyrazol-4-carboxamide]",2.47
27,CCCC(C)(O)c1ccccc1NC(=O)c1c(C)nn(C)c1F (centres unmarked) [IV-2],2.4
28,Cc1nn(C)c(F)c1C(=O)Nc1ccccc1C(C)(O)C(C)C (centres unmarked) [IV-5],2.41
29,Cc1nn(C)c(F)c1C(=O)Nc1ccc(Cl)cc1C(C)(O)C(C)C (centres unmarked) [IV-12],2.99
30,CCC(O)(CC(C)C)c1ccccc1NC(=O)c1c(C)nn(C)c1F (centres unmarked) [IV-13],3.11

# Tested on: Pyrenophora teres
# Experiment: Pyrenophora teres test (barley)/protective
# Assay type: in vivo
# Details: protective, application rate 250 g/ha, evaluation 7 days after inoculation
# Experimental: To produce a suitable preparation of active compound, 1 part by weight of active compound is mixed with the stated amount of solvent and emulsifier, and the concentrate is diluted with water to the desired concentration.
# To test for protective activity, young plants are sprayed with the preparation of active compound at the stated application rate. After the spray coating has dried on, the plants are sprayed with a conidia suspension of Pyrenophora teres. The plants remain in an incubation cabin at 20° C. and 100% relative atmospheric humidity for 48 hours.
# The plants are then placed in a greenhouse at a temperature of about 20° C. and a relative atmospheric humidity of about 80%.
# Evaluation is carried out 7 days after the inoculation. 0% means an efficacy which corresponds to that of the control, whereas an efficacy of 100% means that no infection is observed.
row,SMILES,Efficacy in % [%]
1,CCCC(C)c1ccccc1NC(=O)c1c(C)nn(C)c1F (centres unmarked) [drawing 95],100
2,Cc1nn(C)c(F)c1C(=O)Nc1ccccc1C(C)C(C)C (centres unmarked) [drawing 96],100

# Tested on: Podosphaera leucotricha
# Experiment: Podosphaera test (apple)/protective
# Assay type: in vivo
# Details: protective, application rate 100 g/ha, evaluation 10 days after inoculation
# Experimental: (§1) To produce a suitable preparation of active compound, 1 part by weight of active compound is mixed with the stated amounts of solvent and emulsifier, and the concentrate is diluted with water to the desired concentration.
# To test for protective activity, young plants are sprayed with the preparation of active compound at the stated application rate. After the spray coating has dried on, the plants are inoculated with an aqueous spore suspension of the apple mildew pathogen Podosphaera leucotricha. The plants are then placed in a greenhouse at about 23° C. and a relative atmospheric humidity of about 70%.
# Evaluation is carried out 10 days after the inoculation. 0% means an efficacy which corresponds to that of the control, whereas an efficacy of 100% means that no infection is observed.
row,SMILES,Efficacy in % [%]
1,C=C(c1ccccc1NC(=O)c1c(C)nn(C)c1F)C(C)C [drawing 97],90
2,CCCC(C)c1ccccc1NC(=O)c1c(C)nn(C)c1F (centres unmarked) [drawing 98],100
3,Cc1nn(C)c(F)c1C(=O)Nc1ccccc1C(C)C(C)C (centres unmarked) [drawing 99],100
4,Cc1nn(C)c(F)c1C(=O)Nc1ccc(Cl)cc1C(C)C(C)C (centres unmarked) [drawing 100],100

# Tested on: Altemaria solani
# Experiment: Alternaria test (tomato)/protective
# Assay type: in vivo
# Details: protective, application rate 750 g/ha, evaluation 7 days after inoculation
# Experimental: as §1
# To test for protective activity, young tomato plants are sprayed with the preparation of active compound at the stated application rate. 1 day after the treatment, the plants are inoculated with a spore suspension of Altemaria solani and then remain at 100% rel. humidity and 20° C. for 24 h. The plants then remain at 96% rel. atmospheric humidity and a temperature of 20° C.
# Evaluation was carried out 7 days after the inoculation. 0% means an efficacy which corresponds to that of the control, whereas an efficacy of 100% means that no infection is observed.
row,SMILES,Efficacy in % [%]
1,CCCC(C)c1ccccc1NC(=O)c1c(C)nn(C)c1F (centres unmarked) [drawing 101],95
2,Cc1nn(C)c(F)c1C(=O)Nc1ccccc1C(C)C(C)C (centres unmarked) [drawing 102],95
3,Cc1nn(C)c(F)c1C(=O)Nc1ccccc1C(C)CC(C)C (centres unmarked) [drawing 103],100
